# Tested on: 3D primary human hepatocyte (PHH) high density spheroids
# Assay: 3D PHH high density spheroid drug clearance assay
# Type: in vitro ADME
# Conditions: 0.1 μM substrate, 6-well spheroid insert, in vivo hepatic clearance predicted from in vitro Clint by well stirred model
# Method: Plating PHHs onto 6-well high density spheroid insert (−700 microwells/insert): PHH were thawed as standard procedure and resuspended in WEM plating medium. PHH cells were counted and the cell density was adjusted to 0.35e6/ml using WEM plating medium. For plating PHHs, the pipet aid was set at low disperse speed. Right before plating, a 5 mL pipet was used to remove most medium from pre-wetted inserts. Even cell suspensions were prepared by gently pipetting up and down. Using a 5 mL pipet, with the position the tip against the side wall at the bottom, 2 mL of cell suspension (700K cells, -1000 cells/microwell) was added to a 6-well spheroid insert. The plate was allowed to sit for 15-20 min in the hood. The plates were checked under a microscope with a 4x objective, to ensure that that a similar number of cells have settled into each microwell.
# Half medium change with WME+medium: The pipet aid was at low disperse speed. Using a 5 mL pipet, 1 mL of old medium was slowly from each insert. A 1000 μL pipet tip was positioned against the top part of the insert sidewall, and 1 mL pre-warmed WME+medium was slowly added with the medium being allowed to flow down the sidewall. After waiting 5-10 minutes between each half medium change, the half medium change was repeated 3 more times. The PHHs were checked under a microscope for spheroid formation.
# Incubate the candidate compound(s) to be tested for clearance with the cultured spheroids: The pipet aid was set at low disperse speed. Using a 5 mL pipet, 1 mL of old medium was slowly removed from each insert. […] After 5-10 minutes, the culture was placed back to 37° C. incubator. The timer for incubation was started at this point.
# Sampling: 40 μL/well stop solutions Labetalol (0.2 uM IN 0.05% FA/50%ACN) was aliquoted in an assay plate and kept on ice. At the desired assay incubation time (0 hr, 1 hr, 2 hrs, 4 hrs, 6 hrs, 12 hrs, 24 hrs, 36 hrs, 48 hrs, 3 days, 4 days, 5 days, 6 days, 7 days, 8 days, 9 days, 10 days, 11 days, 12 days, 13 days 14 days, 3 weeks, 4 weeks, or any value or range there between), 40 μL sample were drawn from each incubation well, mixed well with stop solution, and stored at −80° C.
# LC/MS analysis: The amount of the candidate compound was measured using liquid chromatography/mass spectrometry, as is known in the art.
# Calculate the elimination rate constant (ke1): The percentage of the candidate compound remaining in the culture was calculated by dividing the mass spectrometry peak area ratio at certain incubation times to that at time zero, as is known in the art. The natural logarithm of the percentage of the remaining candidate compound was plotted against time, and the kelwas calculated as the absolute value from the slope.
# Calculate the depletion half-lives of the candidate compounds: Once the kel was determined for the candidate compound, the depletion half-life of the candidate compound was determined by Equation 1, as is known in the art.
# Calculate the;n vitro clearance (Clint) of the candidate compound: The in vitro clearance of the candidate compounds was calculated using the in vitro half-lives from Equation 1 using the scaling factors of Equation 2, as is known in the art.
# Calculate predicted in vivo hepatic clearance (CLh): The in vivo hepatic clearance was calculated from the in vitro clearance determined by Equation 2 using the well stirred model Equation 3, as is known in the art.
row,SMILES,"Predicted CLh, 3D HD Spheroids"
1,Cc1nnc2n1-c1ccc(Cl)cc1C(c1ccccc1)=NC2 [Alprazolam],0.45
2,CCC1=C(C)CN(C(=O)NCCc2ccc(S(=O)(=O)NC(=O)N[C@H]3CC[C@H](C)CC3)cc2)C1=O [Glimepiride],0.04
3,C[C@]12C=CC(=O)C=C1CC[C@@H]1[C@@H]2[C@@H](O)C[C@@]2(C)[C@H]1CC[C@]2(O)C(=O)CO [Prednisolone],0.60
4,CCCCNC(=O)NS(=O)(=O)c1ccc(C)cc1 [Tolbutamide],0.22
5,CC(=O)CC(c1ccccc1)c1c(O)c2ccccc2oc1=O (centres unmarked) [Warfarin],0.01

# Tested on: PHHs grown in suspension format
# Assay: not given
# Conditions: human
row,SMILES,Measurability of clearance in suspension hepatocytes
1,CCC1=C(C)CN(C(=O)NCCc2ccc(S(=O)(=O)NC(=O)N[C@H]3CC[C@H](C)CC3)cc2)C1=O [Glimepiride],unable to measure
2,C[C@]12C=CC(=O)C=C1CC[C@@H]1[C@@H]2[C@@H](O)C[C@@]2(C)[C@H]1CC[C@]2(O)C(=O)CO [Prednisolone],unable to measure
3,CCCCNC(=O)NS(=O)(=O)c1ccc(C)cc1 [Tolbutamide],unable to measure
4,CC(=O)CC(c1ccccc1)c1c(O)c2ccccc2oc1=O (centres unmarked) [Warfarin],unable to measure

# Tested on: not given
# Assay: not given
# Conditions: actual in vivo clearance for comparison; cited from earlier work
row,SMILES,In Vivo CLnonrenal
1,Cc1nnc2n1-c1ccc(Cl)cc1C(c1ccccc1)=NC2 [Alprazolam],0.61
2,CN1C(=O)CN=C(c2ccccc2)c2cc(Cl)ccc21 [Diazepam],0.53
3,CCC1=C(C)CN(C(=O)NCCc2ccc(S(=O)(=O)NC(=O)N[C@H]3CC[C@H](C)CC3)cc2)C1=O [Glimepiride],1.12
4,C[C@]12C=CC(=O)C=C1CC[C@@H]1[C@@H]2[C@@H](O)C[C@@]2(C)[C@H]1CC[C@]2(O)C(=O)CO [Prednisolone],1.44

# Tested on: PHHs grown in suspension format
# Assay: Clearance measurement with PHHs grown in suspension format
# Conditions: FIGS. 8A-I
row,SMILES,Measurability of clearance in suspension hepatocytes
1,Cc1nnc2n1-c1ccc(Cl)cc1C(c1ccccc1)=NC2 [Alprazolam],unable to measure
